Read-outs that look alike come from different tables or passages of the source.

For orientation: EC50 means the concentration that produces a half-maximal response.

The test concerns SARS-CoV-2. The test can be described thus: microbe, parasite or virus in culture. It counts as cell-based. The settings on record: read-out: EC50, μM (Hela).
[1] abbreviates: Severe acute respiratory syndrome coronavirus 2, HeLa-ACE2 cells infected with SARS-CoV-2, 24 h, immunofluorescence of infected cells.

Take `COc1cccc2[nH]c(C(=O)N[C@@H](CC(C)C)C(=O)N[C@@H](C[C@@H]3CCNC3=O)C(=O)CO)cc12` [Compound 1, N-((S)-1-(((S)-4-hydroxy-3-oxo-1-((S)-2-oxopyrrolidin-3-yl)butan-2-yl)amino)-4-methyl-1-oxopentan-2-yl)-4-methoxy-1H-indole-2-carboxamide]: the EC50 under setting [1] was 0.2 to 0.5 µM.

With `CC(C)C[C@H](NC(=O)C(=O)Nc1ccccc1)C(=O)N[C@@H](C[C@@H]1CCNC1=O)C(=O)CO` [Compound 2, N^1-((S)-1-(((S)-4-hydroxy-3-oxo-1-((S)-2-oxopyrrolidin-3-yl)butan-2-yl)amino)-4-methyl-1-oxopentan-2-yl)-N^2-phenyloxalamide], the EC50 under setting [1] was over 1 µM.

As for `CCCCCCCCCCCCCCC(=O)OCC(=O)[C@H](C[C@@H]1CCNC1=O)NC(=O)[C@H](CC(C)C)NC(=O)C(=O)Nc1ccccc1F` [Compound 4, (S)-3-((S)-2-(2-((2-fluorophenyl)amino)-2-oxoacetamido)-4-methylpentanamido)-2-oxo-4-((S)-2-oxopyrrolidin-3-yl)butyl pentadecanoate], the EC50 under setting [1] lay within 0.2 to 0.5 µM.

Regarding `CC(C)C[C@H](NC(=O)C(=O)Nc1ccccc1F)C(=O)N[C@@H](C[C@@H]1CCNC1=O)C(=O)COC(=O)C1CCC(N2CCCCC2)CC1` (stereo partly drawn) [Compound 5, (S)-3-((S)-2-(2-((2-fluorophenyl)amino)-2-oxoacetamido)-4-methylpentanamido)-2-oxo-4-((S)-2-oxopyrrolidin-3-yl)butyl 4-(piperidin-1-yl)cyclohexane-1-carboxylate], under setting [1], the EC50 was in the range of 0.2 to 0.5 µM.

Turning to `CC(C)C[C@H](NC(=O)C(=O)Nc1ccccc1F)C(=O)N[C@@H](C[C@@H]1CCNC1=O)C(=O)COC(=O)C1CCN(C2CCCCC2)CC1` [Compound 6, (S)-3-((S)-2-(2-((2-fluorophenyl)amino)-2-oxoacetamido)-4-methylpentanamido)-2-oxo-4-((S)-2-oxopyrrolidin-3-yl)butyl 1-cyclohexylpiperidine-4-carboxylate], under setting [1], the EC50 was 0.05 to 0.2 µM.

On to `COc1ccccc1NC(=O)C(=O)N[C@@H](CC(C)C)C(=O)N[C@@H](C[C@@H]1CCNC1=O)C(=O)CO` [Compound 7], for which, under setting [1], the EC50 is over 1 µM.

On to `Cc1ccccc1NC(=O)C(=O)N[C@@H](CC1CCCCC1)C(=O)N[C@@H](C[C@@H]1CCNC1=O)C(=O)CO` [Compound 8, N^1-((S)-3-cyclohexyl-1-(((S)-4-hydroxy-3-oxo-1-((S)-2-oxopyrrolidin-3-yl)butan-2-yl)amino)-1-oxopropan-2-yl)-N^2-(o-tolyl)oxalamide], for which the EC50 under setting [1] lay in the range of 0.2 to 0.5 µM.

`COc1cccc(NC(=O)C(=O)N[C@@H](CC(C)C)C(=O)N[C@@H](C[C@@H]2CCNC2=O)C(=O)CO)c1` [Compound 9]: the EC50 under setting [1] lay in the range of 0.05 to 0.2 µM.

As for `CC(C)C[C@H](NC(=O)Nc1ccccc1F)C(=O)N[C@@H](C[C@@H]1CCNC1=O)C(=O)CO` [Compound 10, (S)-2-(3-(2-fluorophenyl)ureido)-N-((S)-4-hydroxy-3-oxo-1-((S)-2-oxopyrrolidin-3-yl)butan-2-yl)-4-methylpentanamide], the concentration giving a half-maximal response (EC50) under setting [1] was over 1 µM.

In the case of `Cc1cccc(C)c1NC(=O)C(=O)N[C@@H](CC(C)C)C(=O)N[C@@H](C[C@@H]1CCNC1=O)C(=O)COC(=O)C(=O)c1ccccc1` [Compound 11, (S)-3-((S)-2-(2-((2,6-dimethylphenyl)amino)-2-oxoacetamido)-4-methylpentanamido)-2-oxo-4-((S)-2-oxopyrrolidin-3-yl)butyl 2-oxo-2-phenylacetate], under setting [1], the EC50 lay within 0.05 to 0.2 µM.

Regarding `Cc1cccc(C)c1NC(=O)C(=O)N[C@@H](CC(C)C)C(=O)N[C@@H](C[C@@H]1CCNC1=O)C(=O)CO` [Compound 12, N^1-(2,6-dimethylphenyl)-N^2-((S)-1-(((S)-4-hydroxy-3-oxo-1-((S)-2-oxopyrrolidin-3-yl)butan-2-yl)amino)-4-methyl-1-oxopentan-2-yl)oxalamide], the EC50 under setting [1] was over 1 µM.

In the case of `Cc1cccc(C)c1NC(=O)C(=O)N[C@@H](CC(C)C)C(=O)NC(C[C@@H]1CCNC1=O)C(=O)CO` (stereo partly drawn) [Compound 13, N^1-(2,6-dimethylphenyl)-N^2-((2S)-1-((4-hydroxy-3-oxo-1-((S)-2-oxopyrrolidin-3-yl)butan-2-yl)amino)-4-methyl-1-oxopentan-2-yl)oxalamide], the EC50 under setting [1] is 0.2 to 0.5 µM.

As to `CC(C)C[C@H](NC(=O)C(=O)NC1CCCCC1)C(=O)N[C@@H](C[C@@H]1CCNC1=O)C(=O)CO` [Compound 14, N^1-cyclohexyl-N^2-((S)-1-(((S)-4-hydroxy-3-oxo-1-((S)-2-oxopyrrolidin-3-yl)butan-2-yl)amino)-4-methyl-1-oxopentan-2-yl)oxalamide], the EC50 (Severe acute respiratory syndrome coronavirus 2, HeLa-ACE2, 24 h) was over 1 µM.

`COc1cccc(OC)c1NC(=O)C(=O)N[C@@H](CC(C)C)C(=O)N[C@@H](C[C@@H]1CCNC1=O)C(=O)CO` [Compound 15, N^1-(2,6-dimethoxyphenyl)-N^2-((S)-1-(((S)-4-hydroxy-3-oxo-1-((S)-2-oxopyrrolidin-3-yl)butan-2-yl)amino)-4-methyl-1-oxopentan-2-yl)oxalamide]: the EC50 under setting [1] was over 1 µM.

On to `COc1cccc(C)c1NC(=O)C(=O)N[C@@H](CC(C)C)C(=O)N[C@@H](C[C@@H]1CCNC1=O)C(=O)CO` [Compound 16, N^1-((S)-1-(((S)-4-hydroxy-3-oxo-1-((S)-2-oxopyrrolidin-3-yl)butan-2-yl)amino)-4-methyl-1-oxopentan-2-yl)-N^2-(2-methoxy-6-methylphenyl)oxalamide], for which the EC50 under setting [1] was 0.2 to 0.5 µM.

`CCc1cccc(CC)c1NC(=O)C(=O)N[C@@H](CC(C)C)C(=O)N[C@@H](C[C@@H]1CCNC1=O)C(=O)CO` [Compound 17, N^1-(2,6-diethylphenyl)-N^2-((S)-1-(((S)-4-hydroxy-3-oxo-1-((S)-2-oxopyrrolidin-3-yl)butan-2-yl)amino)-4-methyl-1-oxopentan-2-yl)oxalamide]: the EC50 under setting [1] was under 0.05 µM.

As for `CCCCCCC(=O)OCC(=O)[C@H](C[C@@H]1CCNC1=O)NC(=O)[C@H](CC(C)C)NC(=O)C(=O)NC1CCCCC1` [Compound 18, (S)-3-((S)-2-(2-(cyclohexylamino)-2-oxoacetamido)-4-methylpentanamido)-2-oxo-4-((S)-2-oxopyrrolidin-3-yl)butyl heptanoate], the EC50 under setting [1] fell in the range of 0.05 to 0.2 µM.

Turning to `CCCCCCC(=O)OCC(=O)[C@H](C[C@@H]1CCNC1=O)NC(=O)[C@H](CC1CCCCC1)NC(=O)C(=O)NC1CCCCC1` [Compound 19, (S)-3-((S)-3-cyclohexyl-2-(2-(cyclohexylamino)-2-oxoacetamido)propanamido)-2-oxo-4-((S)-2-oxopyrrolidin-3-yl)butyl heptanoate], the EC50 under setting [1] was 0.2 to 0.5 µM.

For the compound `Cc1ccccc1NC(=O)C(=O)N[C@@H](Cc1ccccc1F)C(=O)N[C@@H](C[C@@H]1CCNC1=O)C(=O)CO` [Compound 20, N^1-((S)-3-(2-fluorophenyl)-1-(((S)-4-hydroxy-3-oxo-1-((S)-2-oxopyrrolidin-3-yl)butan-2-yl)amino)-1-oxopropan-2-yl)-N^2-(o-tolyl)oxalamide], the EC50 under setting [1] is over 1 µM.

Turning to `CC(C)C[C@H](NC(=O)C(=O)Nc1ccccc1F)C(=O)N[C@@H](C[C@@H]1CCCNC1=O)C(=O)CO` [Compound 21, N^1-(2-fluorophenyl)-N^2-((S)-1-(((S)-4-hydroxy-3-oxo-1-((S)-2-oxopiperidin-3-yl)butan-2-yl)amino)-4-methyl-1-oxopentan-2-yl)oxalamide], the EC50 under setting [1] was 0.05 to 0.2 µM.

As for `CC(C)(C)C[C@H](NC(=O)C(=O)NC12CC(F)(C1)C2)C(=O)N[C@@H](C[C@@H]1CCNC1=O)C(=O)CO` [Compound 22, N^1-(3-fluorobicyclo[1.1.1]pentan-1-yl)-N^2-((S)-1-(((S)-4-hydroxy-3-oxo-1-((S)-2-oxopyrrolidin-3-yl)butan-2-yl)amino)-4,4-dimethyl-1-oxopentan-2-yl)oxalamide], the EC50 under setting [1] lay in the range of 0.2 to 0.5 µM.

With `Cc1ccc(C2(NC(=O)C(=O)N[C@@H](CC(C)C)C(=O)N[C@@H](C[C@@H]3CCNC3=O)C(=O)CO)CC2)cc1` [Compound 23], the EC50 under setting [1] was in the range of 0.5 to 1 µM.

Consider `O=C(Nc1ccccc1F)C(=O)N[C@@H](CC1CCCCC1)C(=O)N[C@@H](C[C@@H]1CCCNC1=O)C(=O)CO` [Compound 24, N^1-((S)-3-cyclohexyl-1-(((S)-4-hydroxy-3-oxo-1-((S)-2-oxopiperidin-3-yl)butan-2-yl)amino)-1-oxopropan-2-yl)-N^2-(2-fluorophenyl)oxalamide], for which the EC50 under setting [1] lay within 0.05 to 0.2 µM.

Take `O=C(Nc1ccccc1F)C(=O)N[C@@H](CC1CCCCC1)C(=O)N[C@H](C[C@@H]1CCCNC1=O)C(=O)CO` [Compound 25, N^1-((S)-3-cyclohexyl-1-(((R)-4-hydroxy-3-oxo-1-((S)-2-oxopiperidin-3-yl)butan-2-yl)amino)-1-oxopropan-2-yl)-N^2-(2-fluorophenyl)oxalamide]: the EC50 under setting [1] was 0.05 to 0.2 µM.

With `CC(C)C[C@H](NC(=O)C(=O)NCC(F)(F)F)C(=O)N[C@@H](C[C@@H]1CCNC1=O)C(=O)CO` [Compound 26], under setting [1], the EC50 was over 1 µM.

Regarding `Cc1ccccc1NC(=O)C(=O)N[C@@H](CC(C)C)C(=O)N[C@@H](C[C@@H]1CCCNC1=O)C(=O)CO` [Compound 27, N^1-((S)-1-(((S)-4-hydroxy-3-oxo-1-((S)-2-oxopiperidin-3-yl)butan-2-yl)amino)-4-methyl-1-oxopentan-2-yl)-N^2-(o-tolyl)oxalamide], under setting [1], the EC50 lay in the range of 0.05 to 0.2 µM.

For the compound `CCc1cccc(CC)c1NC(=O)C(=O)N[C@@H](CC(C)C)C(=O)N[C@@H](C[C@@H]1CCCNC1=O)C(=O)CO` [Compound 28, N^1-(2,6-diethylphenyl)-N^2-((S)-1-(((S)-4-hydroxy-3-oxo-1-((S)-2-oxopiperidin-3-yl)butan-2-yl)amino)-4-methyl-1-oxopentan-2-yl)oxalamide], the EC50 under setting [1] is under 0.05 µM.

Take `CC(C)C[C@H](NC(=O)C(=O)NC1(C)CC1)C(=O)N[C@@H](C[C@@H]1CCCNC1=O)C(=O)CO` [Compound 29, N^1-((S)-1-(((S)-4-hydroxy-3-oxo-1-((S)-2-oxopiperidin-3-yl)butan-2-yl)amino)-4-methyl-1-oxopentan-2-yl)-N^2-(1-methylcyclopropyl)oxalamide]: the EC50 under setting [1] was over 1 µM.

For the origin of these results see patent US20230033285A1, “Protease Inhibitors for Treatment of Coronavirus Infections” (The Scripps Research Institute, priority 2021, published 2023).
